Laboratory results: ChEMBL document CHEMBL1201862, “PubChem BioAssay data set” (2004)
Structures can show the parent of a compound that is named as a salt.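 Interpolation was linear, between the two tested concentrations surrounding the appropriate level; five concentrations were tested over 48 hours in 96-well plates. GI50 marks 50% less growth.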 Calls of active or inactive are those of the source. Cut-off read from the data, not from the text of the source: active = GI50 up to about 1.1 µM and inactive = higher. Starred links: 1 amine or outer side, 2 acyl side, 3 side chain; linkers in the order of their positions; H or OH if unused. Non-standard residues stand in square brackets, D forms with d. Residues, ends and D or L forms follow the SMILES beside them. ξ: configuration not given here. Ile(3ξ) = CCC(C)[C@H](N)C(=O)O; X35 = C=CCC(O[*:1])C(=O)[*:2]; NMeV = CN[C@H](C(=O)O)C(C)C; NMeA = CN[C@@H](C)C(=O)O; βAla = NCCC(=O)O

Experiments:
Assay in all cases: NCI anticancer screen, dose series, 48 h
A549 = system: A549
COLO 205 = system: COLO 205
LOX IMVI = system: LOX IMVI
OVCAR-4 = system: OVCAR-4
SK-MEL-28 = system: SK-MEL-28
UO-31 = system: UO-31
NCI-H23 = system: NCI-H23
OVCAR-8 = system: OVCAR-8
RPMI-8226 = system: RPMI-8226
Malme-3M = system: Malme-3M
HOP-62 = system: HOP-62
786-0 = system: 786-0
U-251 = system: U-251
SR = system: SR
NCI-H522 = system: NCI-H522

Measured: GI50

CC1=NCCc2c1[nH]c1cc(O)ccc21 [HARMALOL HYDROCHLORIDE]
inactive: A549 > 100 µM | COLO 205 > 100 µM | LOX IMVI > 100 µM | OVCAR-4 > 100 µM | SK-MEL-28 > 100 µM | UO-31 > 100 µM | NCI-H23 > 100 µM | OVCAR-8 > 100 µM | RPMI-8226 > 100 µM | Malme-3M > 100 µM | HOP-62 > 100 µM | 786-0 > 100 µM

Nc1nc(Cl)c2ncn(CCCC(c3ccccc3)P(=O)(O)O)c2n1 (stereo unspecified)
inactive: A549 > 100 µM | U-251 > 100 µM | COLO 205 > 100 µM | LOX IMVI > 100 µM | SR > 100 µM | SK-MEL-28 > 100 µM | UO-31 > 100 µM | NCI-H23 > 100 µM | OVCAR-8 > 100 µM | NCI-H522 > 100 µM | RPMI-8226 > 100 µM | Malme-3M > 100 µM | HOP-62 > 100 µM | 786-0 > 100 µM

CCCCCCCCCCCc1c(O)c(=O)c2c(oc3c(=O)c(CCCCCCCCCCC)c(O)c(=O)c3n2-c2ccc(N(C)C)cc2)c1=O
inactive: A549 23.6 µM | U-251 21.4 µM | COLO 205 20 µM | LOX IMVI 24.2 µM | SR 65.2 µM | OVCAR-4 16.5 µM | SK-MEL-28 18 µM | NCI-H23 28.7 µM | OVCAR-8 23.3 µM | NCI-H522 58.3 µM | RPMI-8226 91.2 µM | Malme-3M 22.4 µM | HOP-62 20.7 µM | 786-0 17.5 µM

CCCCCC#COC1CC(C)CC[C@@H]1C(C)C (stereo partly specified)
inactive: A549 56.5 µM | U-251 42.3 µM | COLO 205 > 100 µM | LOX IMVI 15.6 µM | OVCAR-4 > 100 µM | SK-MEL-28 > 100 µM | UO-31 50.4 µM | NCI-H23 > 100 µM | OVCAR-8 > 100 µM | NCI-H522 24.5 µM | RPMI-8226 26.4 µM | Malme-3M > 100 µM | HOP-62 47.9 µM | 786-0 > 100 µM

O=C(CCCCCCCCC(=O)OCCCn1cc(C(=O)NC(=O)OCc2ccccc2)c(=O)[nH]c1=O)OCCCn1cc(C(=O)NC(=O)OCc2ccccc2)c(=O)[nH]c1=O
inactive: A549 > 100 µM | U-251 > 100 µM | COLO 205 > 100 µM | LOX IMVI > 100 µM | OVCAR-4 > 100 µM | SK-MEL-28 > 100 µM | UO-31 > 100 µM | NCI-H23 > 100 µM | OVCAR-8 > 100 µM | NCI-H522 > 100 µM | RPMI-8226 > 100 µM | Malme-3M > 100 µM | HOP-62 > 100 µM | 786-0 > 100 µM

Clc1ccc(/N=N/c2nc3ccccc3nc2/N=N/c2ccc(Cl)cc2Cl)c(Cl)c1
inactive: A549 > 100 µM | U-251 > 100 µM | COLO 205 > 100 µM | LOX IMVI > 100 µM | SR 33.5 µM | OVCAR-4 > 100 µM | SK-MEL-28 > 100 µM | UO-31 > 100 µM | NCI-H23 > 100 µM | OVCAR-8 > 100 µM | NCI-H522 60.1 µM | RPMI-8226 > 100 µM | Malme-3M > 100 µM | HOP-62 > 100 µM | 786-0 85.5 µM

C/C(=N\NS(=O)(=O)c1ccc(C)cc1)C(CN1CCCCC1)C(c1ccccc1)c1c(O)c2ccccc2oc1=O (stereo unspecified)
inactive: A549 > 100 µM | U-251 > 100 µM | COLO 205 > 100 µM | LOX IMVI > 100 µM | SR 57 µM | OVCAR-4 > 100 µM | UO-31 > 100 µM | NCI-H23 > 100 µM | OVCAR-8 > 100 µM | NCI-H522 80.9 µM | RPMI-8226 > 100 µM | Malme-3M > 100 µM | HOP-62 > 100 µM | 786-0 > 100 µM

CC(C)NC1CCCCC2c3ccccc3C12O (stereo unspecified)
inactive: A549 > 100 µM | U-251 > 100 µM | COLO 205 > 100 µM | LOX IMVI > 100 µM | SR > 100 µM | OVCAR-4 > 100 µM | SK-MEL-28 > 100 µM | UO-31 > 100 µM | NCI-H23 > 100 µM | OVCAR-8 > 100 µM | NCI-H522 > 100 µM | RPMI-8226 > 100 µM | Malme-3M > 100 µM | HOP-62 > 100 µM | 786-0 > 100 µM

COc1ccc(C2=NN(C(C)=O)c3nc4ccccc4nc3O2)cc1
inactive: A549 40.6 µM | U-251 18.9 µM | COLO 205 > 100 µM | SR > 100 µM | OVCAR-4 11 µM | SK-MEL-28 92.3 µM | UO-31 46.9 µM | NCI-H23 55.2 µM | OVCAR-8 37.3 µM | NCI-H522 20.8 µM | RPMI-8226 > 100 µM | Malme-3M 70.6 µM | HOP-62 23.1 µM | 786-0 15.2 µM

C/C(=N\NC(=O)CC#N)c1c(O)cc(C)oc1=O
inactive: A549 > 100 µM | U-251 > 100 µM | LOX IMVI > 100 µM | SR > 100 µM | OVCAR-4 > 100 µM | SK-MEL-28 > 100 µM | UO-31 > 100 µM | NCI-H23 > 100 µM | OVCAR-8 > 100 µM | Malme-3M > 100 µM | HOP-62 > 100 µM | 786-0 > 100 µM

Nc1nc(SCC(=O)c2ccccc2)c2[nH]cnc2n1
inactive: A549 > 100 µM | U-251 > 100 µM | COLO 205 > 100 µM | LOX IMVI > 100 µM | SR > 100 µM | OVCAR-4 > 100 µM | SK-MEL-28 > 100 µM | NCI-H23 > 100 µM | OVCAR-8 > 100 µM | NCI-H522 > 100 µM | RPMI-8226 > 100 µM | Malme-3M > 100 µM | HOP-62 > 100 µM | 786-0 > 100 µM

CCCN(CCC)c1c([N+](=O)[O-])cc(C(=O)N(CC)CC)cc1[N+](=O)[O-]
inactive: A549 12.3 µM | U-251 15.5 µM | COLO 205 18.1 µM | LOX IMVI 16 µM | SR 14.8 µM | SK-MEL-28 22.9 µM | UO-31 18 µM | NCI-H23 7.55 µM | OVCAR-8 18.3 µM | NCI-H522 10.2 µM | RPMI-8226 11.9 µM | Malme-3M 16.3 µM | HOP-62 29.4 µM | 786-0 27.5 µM

O=C1NC2OCC(O)C(O)C2O1 (stereo unspecified)
inactive: A549 > 100 µM | U-251 > 100 µM | COLO 205 > 100 µM | LOX IMVI > 100 µM | SR > 100 µM | OVCAR-4 > 100 µM | SK-MEL-28 > 100 µM | UO-31 > 100 µM | NCI-H23 > 100 µM | OVCAR-8 > 100 µM | NCI-H522 > 100 µM | Malme-3M > 100 µM | HOP-62 > 100 µM | 786-0 > 100 µM

CCCCC[C@@H]1CCCC2NC(CCCCCO[Si](c3ccccc3)(c3ccccc3)C(C)(C)C)CCC21 (stereo partly specified)
inactive: A549 17.5 µM | U-251 14.1 µM | LOX IMVI 12.2 µM | OVCAR-4 8.67 µM | SK-MEL-28 17.1 µM | UO-31 13.4 µM | NCI-H23 15.7 µM | OVCAR-8 17.1 µM | NCI-H522 15 µM | RPMI-8226 5.31 µM | Malme-3M 19.1 µM | HOP-62 17.9 µM | 786-0 18.1 µM

O=c1c(Sc2c(O)c3ccccc3c3ccccc3c2=O)c(O)c2ccccc2c2ccccc12
inactive: A549 44.6 µM | U-251 18.7 µM | COLO 205 41.6 µM | LOX IMVI 25.1 µM | OVCAR-4 41.8 µM | SK-MEL-28 33 µM | UO-31 43.6 µM | NCI-H23 23.7 µM | OVCAR-8 45.3 µM | NCI-H522 13.4 µM | RPMI-8226 19.8 µM | Malme-3M 25.2 µM | HOP-62 29.5 µM | 786-0 37.2 µM

C=CCc1cc(OC)c2c(c1)C(O)CC(c1ccc(OC)c(OC)c1)O2 (stereo unspecified)
inactive: A549 > 100 µM | U-251 > 100 µM | COLO 205 > 100 µM | SR > 100 µM | OVCAR-4 > 100 µM | SK-MEL-28 > 100 µM | UO-31 > 100 µM | NCI-H23 > 100 µM | OVCAR-8 > 100 µM | NCI-H522 > 100 µM | HOP-62 > 100 µM | 786-0 > 100 µM

C=CCC1OC(=O)CCNC(=O)[C@H](C)N(C)C(=O)[C@H](C(C)C)N(C)C(=O)[C@H](C(C)CC)NC(=O)[C@@H]2CCCN2C1=O (stereo partly specified) (cyclo([Ile(3ξ)][NMeV][NMeA][βAla][X35]P))
inactive: A549 9.08 µM | U-251 > 53 µM | COLO 205 5.14 µM | LOX IMVI 9.16 µM | SR 4.95 µM | OVCAR-4 6.75 µM | SK-MEL-28 33.8 µM | UO-31 33 µM | NCI-H23 26.7 µM | OVCAR-8 16.2 µM | RPMI-8226 4.91 µM | Malme-3M 3.28 µM | HOP-62 4.09 µM | 786-0 5.58 µM

C1=c2ccccc2=C2C(=C(c3ccccc3)C(c3ccccc3)=NN2c2ccccc2)S1
inactive: A549 > 100 µM | U-251 46.7 µM | COLO 205 > 100 µM | LOX IMVI > 100 µM | OVCAR-4 > 100 µM | SK-MEL-28 > 100 µM | UO-31 > 100 µM | NCI-H23 > 100 µM | OVCAR-8 > 100 µM | NCI-H522 > 100 µM | RPMI-8226 > 100 µM | Malme-3M > 100 µM | HOP-62 > 100 µM | 786-0 58.6 µM

NCc1cc(O)c(O)c(O)c1
inactive: A549 > 100 µM | U-251 > 100 µM | COLO 205 > 100 µM | LOX IMVI 34.8 µM | SR 91.2 µM | OVCAR-4 > 100 µM | SK-MEL-28 > 100 µM | UO-31 > 100 µM | OVCAR-8 > 100 µM | NCI-H522 > 100 µM | RPMI-8226 33.7 µM | Malme-3M > 100 µM | HOP-62 > 100 µM | 786-0 > 100 µM
